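Assay format: 96-well plates, 48-hour exposure. The concentration for 50% growth inhibition is given as GI50. TGI: concentration producing complete growth inhibition.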
Tests used:
Assay in all cases: inhibition of tumour cell growth, NCI panel, 48 h
[1] = tested on: CCRF-CEM leukemia
[2] = tested on: RPMI-8226 leukemia
[3] = tested on: LOX IMVI melanoma
[4] = tested on: HT29 colon
[5] = tested on: HL-60(TB) leukemia
[6] = tested on: CAKI-1 renal
[7] = tested on: NCI-H226 lung
[8] = tested on: SR leukemia
[9] = tested on: PC-3 prostate
[10] = tested on: NCI/ADR-RES ovarian

SMILES	GI50 [1] [µM]	TGI [1] [µM]	GI50 [2] [µM]	TGI [2] [µM]	GI50 [3] [µM]	TGI [3] [µM]	GI50 [4] [µM]	TGI [4] [µM]	GI50 [5] [µM]	TGI [5] [µM]	GI50 [6] [µM]	TGI [6] [µM]	GI50 [7] [µM]	TGI [7] [µM]	TGI [8] [µM]	GI50 [9] [µM]	TGI [9] [µM]	GI50 [8] [µM]	GI50 [10] [µM]	TGI [10] [µM]
CC[O-].CC[O-].O=C([CH-]C(=O)c1ccccc1)CCCCCCC(=O)[CH-]C(=O)c1ccccc1.[Ti+4]	> 100	> 100	> 100	> 100	> 100	> 100	> 100	> 100	> 100	> 100	> 100	> 100								
[Co].[O-]c1cccnc1C=Nc1ccccc1.[OH3+]	> 100	> 100	> 100	> 100	> 100	> 100	> 100	> 100	21.8	> 100										
CCC[CH2][Sn]1([CH2]CCC)[O]CC[S]1	0.177	0.814	0.162	0.551	0.459	1.7	1.27	2.81	0.268	1.22	0.221	1.51	1.02	2.36						
CO/C=C(\Br)c1ccc2c(c1)OCO2		> 100								> 100		> 100		> 100	> 100					
Cc1ccc2[nH]c(C(=O)NN3C(=O)C(C)SC34CCC(C)CC4)c(-c3ccccc3)c2c1 (configuration not stated)	20.4	79.6	11.5	52.6	18	34.8	13.1	29.3			15.6	38	17.3	35.5		13.8	46			
COc1ccc(C2=NN(C(C)=O)C(c3ccc(Oc4ccnc5cc(Cl)ccc45)c(OC)c3)C2)cc1 (configuration not stated)	> 100	> 100	> 100	> 100					> 100	> 100	> 100	> 100			> 100			> 100		
CC1(C)CCc2c(c(N=Nc3ccccc3F)c3ccccc3c2O)O1	> 100	> 100	> 100	> 100	20.9	40.9			> 100	> 100	31.6	> 100	38.7	> 100		59.8	> 100		20.1	47.1
CC(=O)[CH-]C(C)=O.CC(=O)[CH-]C(C)=O.[Cl-].[O]=[V]					14.9	44.5					55.3	> 100	27.5	76.1	> 100			> 100		
COc1ccc(-c2oc3c(OC)c(OC)c(OC)c(O)c3c(=O)c2OC)cc1O		11.4						36.8		< 0.01	< 0.01	> 100			0.112			< 0.01		
C/C(=C\C(C[C@](C)(O)C(O)CCC#C[Si](C)(C)C)S(=O)(=O)c1ccccc1)CC/C=C/CO[Si](C)(C)C(C)(C)C (some centres not stated)		28.9		31.6		28.7		12.7		33.2		33		38.8						
O=C(CC1(O)C(=O)Nc2ccccc21)c1ccc(Cl)cc1Cl (configuration not stated)				> 100		> 100		> 100		> 100		> 100		> 100						
COc1ccc2c(c1)C(=O)c1c-2c(N2CCN(C(=O)CCNCCNCCN)CC2)nc2ccccc12	2.85	7.93	2.93	9.71			2.43	4.88	3.03	6.83	18.8	47.8	22.6	78.4		10.3	25.9			
O=C(c1ccccc1)C1OC1C(=O)c1ccccc1 (configuration not stated)			3.34	11.6	2.75	11.7	3.19	13.2			2.82	23.4	5.24	> 100		4.72	25.7		1.88	> 100
N#CC1(N2CCCC2)CCC2(CC1)OCCO2		> 100		> 100		> 100		> 100		> 100		> 100		> 100	> 100					
CN(C)CCN(C)C(=O)c1cccc2cccc(C(=O)O)c12		> 100		> 100		> 100		> 100		> 100				> 100	> 100					

From PubChem BioAssay (NCI)
